Data set [1] deals with Ncyte® vCardiomyocytes. Kind of data set: Amphotericin-perforated whole-cell recordings on hiPSC-CM (current clamp and voltage clamp). In kind it is cell-based, human. To be noted: cenobamate 200 µM. On the procedure: Experiments were performed on HEK293T cell lines with persistent/inducible expression of different human cardiac ion channel isoforms: hNav1.5 and hKv7.1 + minK (Anaxon AG, Bern, Switzerland), hCav1.2 (α1c + β2 + α2δ1) (B’SYS GmbH, Witterswil, Switzerland), and hKv11.1 (hERG) (Cytocentrics Bioscience GmbH, Rostock, Germany). The cell lines were grown in standard conditions (37 °C, 5% CO2, 90% humidity) in DMEM:F12 medium (D8900, Sigma-Aldrich, Burlington, MA, USA) buffered with 15 mM HEPES, containing 3.15 g/L D-glucose and 0.055 g/L sodium pyruvate, supplemented with 1.2 g/L sodium bicarbonate, 10% fetal bovine serum (F2442, Sigma-Aldrich, Burlington, MA, USA), 2 mM L-glutamine (G7513, Sigma-Aldrich, Burlington, MA, USA), 1% penicillin–streptomycin (P4333, Sigma-Aldrich, Burlington, MA, USA), and with specific antibiotics for selection of transfected cells or induction of gene expression according to manufacturers’ instructions. The medium was changed every 2–3 days and the cells were passed weekly upon detachment with trypsin–EDTA solution. All cell culture media and solutions were sterile filtered with 0.22 μm polyvinylidene fluoride filters. Ncyte® vCardiomyocytes (Ncardia, Leiden, The Netherlands) were cultured in 24-well plates precoated with bovine fibronectin, following manufacturer’s instructions. For the experiments, cardiomyocytes were detached as described previously and plated on ϕ 10 mm glass coverslips, like the other cell lines.
Experiments on Ncyte® vCardiomyocytes were performed via an amphotericin-perforated whole-cell approach, filling the pipettes with solution containing amphotericin B 300 µg/mL except for a small region near the tip that contained amphotericin-free solution. The voltage-clamp and current-clamp protocols were similar to those used in our previous studies; the following protocols were recorded in sequence before and at 3 min after application of cenobamate in the bath to a final concentration of 200 µM: • - Nav standard protocol: holding −90 mV, depolarizing step at −10 mV lasting 40 ms; • - Cav-Nav separation protocol: holding −80 mV, first step at −20 mV 200 ms, intermediate step at −40 mV 100 ms, second step at −50 mV to +50 mV 200 ms, in 10 mV increments in consecutive sweeps; • - hERG standard protocol: holding −70 mV, a brief preliminary step at −50 mV 100 ms, first step at +40 mV 2000 ms, second step at −120 mV/−50 mV 2000 ms (in consecutive sweeps); • - A double voltage ramp protocol: holding −80 mV, first ramp from −120 mV to +80 mV in 2000 ms, second ramp from +80 mV back to −120 mV in 2000 ms, sweeps repeated at 10 s intervals; • - A current-clamp protocol with external pacing: 3 current stimuli of 2 nA amplitude, duration 0.5 ms (up to 2.5 ms in some experiments) applied at 3 s intervals, first stimulus at 500 ms after start of recording; in cells with spontaneous pace-making, this phenomenon was suppressed by applying a steady hyperpolarizing current of −10 pA or −20 pA. […]

The conditions of data set [2]: cited from earlier work; for healthy volunteers with QT interval shortening greater than 20 ms: study YKP3089C020, ref [9] p. 11.
The test system of data set [3] is voltage-gated sodium channels in rat hippocampal CA3 neurons. To be noted: cited from earlier work; for pIC50: newborn rat CA3 hippocampal neurons, ref [22].
For data set [4] the following is noted: cited from earlier work.

pIC50, pKd: −log10 of the molar value. Where “and” joins values, the source holds several entries; their conditions need not be identical. Equal entries are not always repeated. Where two headings read alike, the source gives them in different places. Bounds are passed on as bounds.

As to `NC(=O)O[C@@H](Cn1ncnn1)c1ccccc1Cl` [cenobamate], the “%ICaL peak change, mean (Table S8)” value in data set [1] (hiPSC-CM) was found to be 35.16%. The “%INa peak change, mean (Table S8)” value in data set [1] (hiPSC-CM) is on record as 27.43%. Besides, the “%If change, mean (Table S8)” value in data set [1] (hiPSC-CM) is reported as 19.89%. Further, in data set [1] (initial mean 1212.99 ms), the “APD90 ceno, mean (Table S8)” value turned out to be 619.83 ms. Further, in data set [1] (mean (SD), n = 5), the “average APD90 shortening (%APD90 change)” value is 28.55% and 28.6 ± 13.5%. In addition, the “healthy volunteers with QT interval shortening greater than 20 ms” value in data set [2] (200 mg oral dose, 6–17% with placebo) was 31%; in data set [2] (500 mg) it was 66%. Further, the QTc interval shortening in data set [2] (ref [9] pp. 11–12) is > 20 ms. Also, the “QTc interval under cenobamate (not below)” value in data set [2] (ref [9] pp. 11–12) is ≥ 300 ms. In addition, the “change in half-inactivation potential” value in data set [3] (100 µM cenobamate, ref [22] Nakamura et al., 2019) is reported as −6 mV. The values for the negative logarithm of the IC50 (pIC50) in data set [3] (read-out: IC50 on late (persistent) INa) and in data set [3] (read-out: estimated IC50 on peak (transient) Na+ current) were 4.27 and < 3.30, respectively. The pKd in data set [3] (ref [22] Nakamura et al., 2019, read-out: KR (affinity for resting (closed) conformation)) is 3.10. In addition, the “peak plasma therapeutic concentration (Cmax)” value in data set [4] (400 mg/day, study YKP3089C018, ref [5] p. 13) is 45500 ng/mL. The Cmax in data set [4] (read-out: Cmax (maximal effective therapeutic plasma concentration), 400 mg/day, ref [5] p. 13 / p. 10) is 170 µM; in data set [4] (read-out: Cmax (model script), value entered in C++ script, ref [5]) it was 170 µM.

As a reminder, the pIC50 is the negative decadic logarithm of the IC50, by convention in mol/L.

The record behind these values is publication PMC11674187, “Inhibitory Effects of Cenobamate on Multiple Human Cardiac Ion Channels and Possible Arrhythmogenic Consequences” (Biomolecules, 2024).
